Assay results published in ChEMBL document CHEMBL5620415, “Design, synthesis and anti-hepatic fibrosis activity of novel diphenyl vitamin D receptor agonists” (Eur J Med Chem, 2023).
Active and inactive are the calls of the source. No cut-off for these calls is given here.

Experiments:
[1] = target: T1, Vitamin D3 receptor (Homo sapiens) (UniProt P11473); assay: Binding affinity to human full-length Vitamin D receptor assessed as relative binding affinity at 1 uM incubated for 2 hrs by fluorescence polarization based competitive binding assay relative to calcipotriol; conditions: filed as agonist
T1 sequence (whole entry): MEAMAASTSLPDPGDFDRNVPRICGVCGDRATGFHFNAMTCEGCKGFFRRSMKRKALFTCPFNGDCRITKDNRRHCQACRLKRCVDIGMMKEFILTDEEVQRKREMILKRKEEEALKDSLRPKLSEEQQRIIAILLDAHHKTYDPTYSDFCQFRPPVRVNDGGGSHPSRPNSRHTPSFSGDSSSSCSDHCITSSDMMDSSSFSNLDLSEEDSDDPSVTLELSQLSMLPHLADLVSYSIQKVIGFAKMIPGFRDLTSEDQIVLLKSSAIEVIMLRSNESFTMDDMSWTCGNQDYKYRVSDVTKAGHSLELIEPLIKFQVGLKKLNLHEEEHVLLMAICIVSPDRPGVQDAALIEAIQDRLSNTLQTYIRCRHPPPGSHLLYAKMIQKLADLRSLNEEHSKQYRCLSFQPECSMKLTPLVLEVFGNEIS

[2] = Toxicity in CCl4-induced hepatic fibrosis C57BL/6 mouse model assessed as serum hypercalcemia at 500 ug/kg, po five times a week for 2 weeks by calcium assay kit; type: organism-based; conditions: in vivo, 0.5 mg/kg, 336 h, dose 500 µg/kg
[3] = system: Mus musculus; assay: Anti-fibrotic effect in bile duct ligation (BDL) surgery-induced hepatic fibrosis C57BL/6 mouse model assessed as inhibition of collagen deposition in liver at 500 ug/kg, po five times a week for 2 weeks by Hematoxylin-Eosin (H&E) staining based assay; type: functional, organism-based; conditions: dose 500.0 µg/kg
[4] = system: Mus musculus; assay: Anti-fibrotic effect in improving CCl4-induced hepatic fibrosis C57BL/6 mouse model assessed as decrease in liver to kidney brightness ratio at 500 ug/kg, po five times a week for 2 weeks by qualitative ultrasound imaging analysis; type: functional, organism-based; conditions: dose 500.0 µg/kg
[5] = target: T1, Vitamin D3 receptor (Homo sapiens); assay: Agonist activity at Vitamin D receptor in HEK293 cells assessed as receptor transactivation incubated for 48 hrs by dual-luciferase reporter assay; type: cell-based; conditions: filed as agonist, dose 0.01-1 µM
[6] = system: Mus musculus; assay: Anti-fibrotic effect in bile duct ligation (BDL) surgery-induced hepatic fibrosis C57BL/6 mouse model assessed as inhibition of fibronectin (Fn) expression in liver at 500 ug/kg, po five times a week for 2 weeks by RT-qPCR analysis; type: functional, organism-based; conditions: dose 500.0 µg/kg
[7] = system: Mus musculus; assay: Anti-fibrotic effect in bile duct ligation (BDL) surgery-induced hepatic fibrosis C57BL/6 mouse model assessed as reduction the lesions at 500 ug/kg, po five times a week for 2 weeks by Masson's Trichrome staining based assay; type: functional, organism-based; conditions: dose 500.0 µg/kg
[8] = system: Mus musculus; assay: Anti-fibrotic effect in CCl4-induced hepatic fibrosis C57BL/6 mouse model assessed as inhibition of serum ALT level at 500 ug/kg, po five times a week for 2 weeks; type: functional, organism-based; conditions: dose 500.0 µg/kg
[9] = system: Mus musculus; assay: Anti-fibrotic effect in bile duct ligation (BDL) surgery-induced hepatic fibrosis C57BL/6 mouse model assessed as inhibition of collagen deposition in liver at 500 ug/kg, po five times a week for 2 weeks by Masson's Trichrome […] staining based assay; type: functional, organism-based; conditions: dose 500.0 µg/kg
[10] = system: Mus musculus; assay: Anti-fibrotic effect in bile duct ligation (BDL) surgery-induced hepatic fibrosis C57BL/6 mouse model assessed as inhibition of serum ALT level at 500 ug/kg, po five times a week for 2 weeks; type: functional, organism-based; conditions: dose 500.0 µg/kg

- RBA [1]: 51.4%
- Activity [5]: Dose-Dependent Effect
SMILES: OCc1ccc(/C=C/c2ccc(OCCCC(F)(F)F)cc2)cc1CO
- Activity [2]: Non-Toxic
- Activity [3]: Active
- Activity [4]: Active
- Activity [6]: Active
- Activity [7]: Active
- Activity [8]: Active
- Activity [9]: Active
- Activity [10]: Active
